Experiment: Kinetic gradient concentration study in water
Type: physicochemical
Details: CBZ gradient 0.01-0.64 w/v %
Experimental: CBZ-Ethanol solution was dispensed into 10 columns of wells in a 96-well microplate as follows: row A (80 μL @ 1 mg/mL; 80 μg API); row B (100 μL @ 2 mg/mL; 200 μg); row C (100 μL @ 4 mg/mL; 400 μg); row D (100 μL @ 6 mg/mL; 600 μg); row E (100 μL @ 8 mg/mL; 800 μg); row F (100 μL @ 20 mg/mL; 2 mg); row G (2×100 μL @ 20 mg/mL; 4 mg); row H (4×100 μL @ 20 mg/mL; 8 mg). Thus, a first-pass filling of the wellplate was conducted. The wellplate was placed on a centrivap and the solvent stripped at ambient temperature for ˜4 hours. The wells in rows G and H were refilled with CBZ solution, and the solvent stripped at ambient temperature for ˜1 hour, resulting in a net CBZ charge to rows G and H of 4 mg per well. This procedure was repeated twice for row H, resulting in a net CBZ charge of 8 mg per well. […] To the wells in columns 1 through 10 were charged the appropriate excipient, surfactant, and HPBCD solutions (4 mg/mL; 25 or 80 μL 5% Ethanol solution) that were previously determined in Example 1. Additional 5% Ethanol solvent was added to the wells to give 200 μL total liquid. The solvent (200 μL) was also charged to wells in column 11 (API control) and 12 (solvent only). […]
The microplate was inverted before scanning through the film on a UV-VIS microplate reader (600-900 nm, 2-nm step size; transmittance). […]

NC(=O)N1c2ccccc2C=Cc2ccccc21 [control, carbamazepine]
kinetically stable API concentration, sonicated microplate (sonicated wellplate): 0.02 w/v %
kinetically stable API concentration, unsonicated microplate (unsonicated wellplate): 0.02 w/v %
